Measurements from publication PMC4981310 (PLoS Pathogens, 2016).

Columns and labels:
[1] = target: T1, GlgA (Mycobacterium tuberculosis, UniProt P9WMZ1); assay type: biochemical
T1 construct: gene glgM

[2] = target: T1, GlgA; test: biochemical
[3] = target: GlgP (Mycobacterium tuberculosis, UniProt P9WMW1); assay type: biochemical
[4] = target: T1, GlgA; assay type: biochemical; remark: listed apart in the source

Q: With O=P(O)(O)O[C@H]1O[C@H](CO)[C@@H](O[C@H]2O[C@H](CO)[C@@H](O)[C@H](O)[C@H]2O)[C@H](O)[C@H]1O [M1P, α-maltose 1-phosphate] as the molecule, how does the “1H NMR and high resolution MS of the enzyme reaction product” value [1] read?
A: Recombinant M. tuberculosis GlgA converts ADP-glucose and G1P to M1P.

Q: For O=P(O)(O)O[C@H]1O[C@H](CO)[C@@H](O)[C@H](O)[C@H]1O [G1P, glucose 1-phosphate], which Ki [2] is on record?
A: 895 ± 60 µM

Q: What about the “1H NMR of glycogen phosphorolysis by recombinant enzyme” value [3] of the same molecule?
A: recombinant M. tuberculosis GlgP was only capable of forming G1P from glycogen and inorganic phosphate

Q: With Nc1ncnc2c1ncn2[C@@H]1O[C@H](COP(=O)(O)OP(=O)(O)O)[C@@H](O)[C@H]1O [ADP] as the molecule, how does the “MS of reaction products; coupled assay of ADP release” value [4] read?
A: The next most abundant ion is consistent with the presence of the co-product, ADP
